The values below come from patent US20110144001A1, “HIGHLY BRIDGED PEPTIDES FROM ACTINOMADURA NAMIBIENSIS” (SANOFI-AVENTIS, priority 2008, published 2011).

Broadly, the zone of inhibition is the extent of the growth-free halo in a diffusion test. A high value points to wide suppression of growth.

Assay [1] deals with Streptomyces murinus (DSM 40091). Put plainly: microbe, parasite or virus in culture. The settings on record: 28° C., 20 μl of 1 mg/ml test solution on 6 mm filter, 1 to 3 days. The format is cell-based. The method, then:
(§1) The compounds were dissolved in water with 10% MeOH to a final concentration of 1 mg/ml. For the bioassay sterile Nunc plates with a size of 24×24 cm were used. For one plate 200 ml of agar were used. The agar was cooled after autoclaving to 55° C. and 2-4 ml of culture suspension of the test organism were added before plating. To each plate 64 filter plates with 6 mm in diameter were added. To each filter 20 μl of the test solution were added and incubated for 1 to 3 days at 28° C. or 37° C. The inhibition zone in mm was reported. For a detailed description of the methods, see Bauer et al., Amer. J. Clin. Pathol. 1966, 45, 493-496; Müller & Melchinger, Methoden in der Mikrobiologie, Franckhsche Verlagshandlung, Stuttgart (1964); Mueller & Hinton, Proc. Soc. Expt. Biol. Med. 1941, 48, 330-333.

Assay [2] concerns Bacillus subtilis (ATCC 6633). As to the kind of experiment: microbe, parasite or virus in culture. The following applies: 37° C., 20 μl of 1 mg/ml test solution on 6 mm filter, 1 to 3 days. The format is cell-based. The method, then:
as §1

In assay [3] the test system is SNI mouse model of neuropathic pain. Put plainly: Spared nerve injury (SNI) mouse model of neuropathic pain, tactile allodynia by automatic von Frey test. The format is in vivo, C57B6 mice. The settings on record: 3 mg/kg intravenous single application. The text has this:
Labyrinthopeptin A1 was studied in the spared nerve injury (SNI) mouse model of neuropathic pain in order to proof the activity on tactile allodynia. Under general anesthesia, the two major branches of the sciatic nerve in adult male C57B6 mice (weight: 22.8 g+/−0.35 SEM) have been ligated and transsected, with the sural nerve left intact. Tactile allodynia has been determined with the automatic von Frey test: using a dump needle stick, the plantar skin of hind paws was exposed to a pressure stimulus of increasing intensity up to 5 g. The force in grams at which the animal responded with hindpaw withdrawal was used as a read-out for tactile allodynia. The study was performed 7 days after nerve lesion over 6 hours with an additional measurement after 24 hours. Within two days after nerve transsection, tactile allodynia developed completely and remained stable over at least two weeks. The compound was administered intravenous as a single application (3 mg/kg). As a vehicle for the intravenous application was the 1:1:18 (ethanol:solutol: phosphate buffered saline) vehicle chosen.
The effect was gone 24 hours after application. […] The percent benefit of the treatment was evaluated using the |AUC1-6 hour| values of the ipsilateral vehicle group (0% benefit) and all |AUC1-6 hour| values of the contralateral sides of all three groups (100% benefit=maximal possible effect). […]

Each structure is given as a SMILES string.

Turning to `CN(C)[C@@H]1C(O)=C(C(N)=O)C(=O)[C@@]2(O)C(O)=C3C(=O)c4c(O)cccc4[C@@](C)(O)[C@H]3C[C@@H]12` [Tetracycline, reference compound], the zone of inhibition at 1000 µg/mL in assay [1] (Streptomyces murinus, DSM40091) worked out at 24 mm; in assay [2] (Bacillus subtilis, ATCC6633) it was 32 mm.
As to `C/C=C1\NC(=O)[C@H](Cc2ccccc2)NC(=O)[C@@H]2CCCN2C(=O)[C@H](C(C)C)NC(=O)[C@H](Cc2c[nH]c3ccccc23)NC(=O)[C@]23CSC[C@H](NC1=O)C(=O)N[C@H](C(=O)O)CSSC[C@@H](NC(=O)[C@@H]1CSC[C@]4(C[C@H](NC(=O)OC(C)(C)C)C(=O)N[C@@H](CC(N)=O)C(=O)N[C@@H](C)C(=O)N4)C(=O)N[C@@H](C(C)C)C(=O)N[C@@H](Cc4c[nH]c5ccccc45)C(=O)N[C@@H](CCC(=O)O)C(=O)N1)C(=O)N[C@@H](C2)C(=O)N[C@@H]([C@@H](C)O)C(=O)NCC(=O)N3` [Labyrinthopeptin A1 derivative, Ex. 16], the “inhibition zone, Streptomyces murinus (DSM 40091)” value (shortened to “inhibition zone … (DSM 40091)”) in assay [1] is listed as 0 mm. The “inhibition zone, Bacillus subtilis (ATCC 6633)” value (shortened to “inhibition zone … (ATCC 6633)”) in assay [2] came out at 9 mm.
As for `C/C=C1\NC(=O)[C@H](Cc2ccccc2)NC(=O)[C@@H]2CCCN2C(=O)[C@H](C(C)C)NC(=O)[C@H](Cc2c[nH]c3ccccc23)NC(=O)[C@]23CSC[C@H](NC1=O)C(=O)N[C@H](C(=O)O)CSSC[C@@H](NC(=O)[C@@H]1CSC[C@]4(C[C@H](N)C(=O)N[C@@H](CC(N)=O)C(=O)N[C@@H](C)C(=O)N4)C(=O)N[C@@H](C(C)C)C(=O)N[C@@H](Cc4c[nH]c5ccccc45)C(=O)N[C@@H](CCC(=O)O)C(=O)N1)C(=O)N[C@@H](C2)C(=O)N[C@@H]([C@@H](C)O)C(=O)NCC(=O)N3` [Labyrinthopeptin A1], in assay [3] (7 days after nerve lesion, 0% = ipsilateral vehicle, 100% = contralateral sides), the “percent benefit of the treatment from |AUC1-6 hour| of paw withdrawal threshold” value is given as 95 % benefit. In assay [3] (vs vehicle), the “treatment effect on delta |AUC1-6 hour| of paw withdrawal threshold (1-way ANOVA, Dunnett analysis)” value is given as “significant treatment effects”. In assay [1], the “inhibition zone … (DSM 40091)” value is on record as 13 mm. Moreover, the “inhibition zone … (ATCC 6633)” value in assay [2] is 16.5 mm.
In the case of `C/C=C1\NC(=O)[C@H](Cc2ccccc2)NC(=O)[C@@H]2CCCN2C(=O)[C@H](C(C)C)NC(=O)[C@H](Cc2c[nH]c3ccccc23)NC(=O)[C@]23CSC[C@H](NC1=O)C(=O)N[C@H](C(=O)NCc1ccccc1)CSSC[C@@H](NC(=O)[C@@H]1CSC[C@]4(C[C@H](NC(=O)OC(C)(C)C)C(=O)N[C@@H](CC(N)=O)C(=O)N[C@@H](C)C(=O)N4)C(=O)N[C@@H](C(C)C)C(=O)N[C@@H](Cc4c[nH]c5ccccc45)C(=O)N[C@@H](CCC(=O)NCc4ccccc4)C(=O)N1)C(=O)N[C@@H](C2)C(=O)N[C@@H]([C@@H](C)O)C(=O)NCC(=O)N3`, in assay [1], the “inhibition zone … (DSM 40091)” value was determined as 7 mm. Moreover, in assay [2], the “inhibition zone … (ATCC 6633)” value was 9 mm.
The corresponding values for `C/C=C1\NC(=O)[C@H](Cc2ccccc2)NC(=O)[C@@H]2CCCN2C(=O)[C@H](C(C)C)NC(=O)[C@H](Cc2c[nH]c3ccccc23)NC(=O)[C@]23CSC[C@H](NC1=O)C(=O)N[C@H](C(=O)O)CSSC[C@@H](NC(=O)[C@@H]1CSC[C@]4(C[C@H](NC(=O)OCCCCC)C(=O)N[C@@H](CC(N)=O)C(=O)N[C@@H](C)C(=O)N4)C(=O)N[C@@H](C(C)C)C(=O)N[C@@H](Cc4c[nH]c5ccccc45)C(=O)N[C@@H](CCC(=O)O)C(=O)N1)C(=O)N[C@@H](C2)C(=O)N[C@@H]([C@@H](C)O)C(=O)NCC(=O)N3` [Labyrinthopeptin A1 derivative, Ex. 18] are 7 mm and 8 mm.
